SMILES strings stand for the structures.

Melting point and IC50 data for three compounds are collected here from US7563799B2, “Substituted pyrazolo[3,4-D]pyrimidines as p38 map kinase inhibitors” (Roche Palo Alto LLC, priority 2005, dated 2009).

In data set [1] the target is T1, p38 MAP kinase (Homo sapiens, UniProt Q16539).
T1 construct: made in house; host or cells: E. coli (co-expressed with SEK-1 and MEKK)
In words: p38 (MAP) kinase in vitro assay (transfer of γ-33P from ATP to Myelin Basic Protein). In kind it is biochemical. To be noted: phosphorylated recombinant p38 MAP kinase, MBP substrate, γ-33P-ATP, 30° C. As for the experimental part: This example illustrates a p38 (MAP) kinase in vitro assay useful for evaluating the compounds of the invention.
The p38 MAP kinase inhibitory activity of compounds of this invention in vitro was determined by measuring the transfer of the γ-phosphate from γ-^33P-ATP by p-38 kinase to Myelin Basic Protein (MBP), using a minor modification of the method described in Ahn, et al., J. Biol. Chem. 266:4220-4227 (1991).
The phosphorylated form of the recombinant p38 MAP kinase was co-expressed with SEK-1 and MEKK in E. Coli (see, Khokhlatchev, et al., J. Biol. Chem. 272:11057-11062 (1997)) and then purified by affinity chromatography using a Nickel column.
The phosphorylated p38 MAP kinase was diluted in kinase buffer (20 mM 3-(N-morpholino)propanesulfonic acid, pH 7.2, 25 mM β-glycerol phosphate, 5 mM ethylene glycol-bis(beta-aminoethyl ether)-N,N,N′,N′-tetraacetic acid, 1 mM sodium ortho-vanadate, 1 mM dithiothreitol, 40 mM magnesium chloride). Test compound dissolved in DMSO or only DMSO (control) was added and the samples were incubated for 10 min at 30° C. The kinase reaction was initiated by the addition of a substrate cocktail containing MBP and γ-^33P-ATP. […] The phosphorylated MBP was then separated from the residual γ-^33P-ATP using a phosphocellulose membrane (Millipore, Bedfrod, Mass.) and quantitated using a scintillation counter (Packard, Meriden, Conn.).

T1 sequence (Q16539 whole entry): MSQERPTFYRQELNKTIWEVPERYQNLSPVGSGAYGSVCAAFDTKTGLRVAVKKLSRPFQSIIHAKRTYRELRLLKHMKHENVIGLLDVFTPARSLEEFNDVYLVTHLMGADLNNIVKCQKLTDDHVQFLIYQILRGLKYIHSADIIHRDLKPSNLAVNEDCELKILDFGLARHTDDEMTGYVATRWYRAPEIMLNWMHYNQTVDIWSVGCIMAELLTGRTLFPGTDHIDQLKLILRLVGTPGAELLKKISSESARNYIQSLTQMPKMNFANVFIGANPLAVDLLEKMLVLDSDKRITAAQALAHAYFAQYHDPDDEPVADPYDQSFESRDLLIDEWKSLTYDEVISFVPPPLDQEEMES

In general, melting point refers to the temperature, or range, at which the solid turns liquid. The compound `CS(=O)(=O)c1ccc(Cl)c(-c2n[nH]c3nc(Oc4ccc(F)cc4F)ncc23)c1` [Compound 2, 3-(2-Chloro-5-methanesulfonyl-phenyl)-6-(2,4-difluoro-phenoxy)-1H-pyrazolo[3,4-d]pyrimidine] yielded a melting point of 251.6 to 252.2 °C.
The IC50 is the point on the concentration scale where inhibition reaches its midpoint. Regarding `CS(=O)(=O)c1ccc(Cl)c(-c2n[nH]c3nc(Oc4ccc(F)cc4F)nc(NC(CO)CO)c23)c1` [Compound 4, 2-[3-(2-Chloro-5-methanesulfonyl-phenyl)-6-(2,4-difluoro-phenoxy)-1H-pyrazolo[3,4-d]pyrimidin-4-ylamino]-propane-1,3-diol], in data set [1], the half-maximal inhibitory concentration (IC50) was approximately 2 nM.
`Cc1ccc(S(C)(=O)=O)cc1-c1n[nH]c2nc(Oc3ccc(F)cc3F)ncc12` [Compound 5, 6-(2,4-Difluoro-phenoxy)-3-(5-methanesulfonyl-2-methyl-phenyl)-1H-pyrazolo[3,4-d]pyrimidine]: the melting point was 133 to 135 °C.
